Assay results: patent US9586949B2, “Aza-heteroaryl compounds as PI3K-gamma inhibitors” (Incyte Corporation, priority 2015, dated 2017)
Counter-ions that a name gives are not always drawn.

Columns and labels:
[1] = target: PI3Kδ (p110δ/p85α) Recombinant Human Protein (Homo sapiens (Human), UniProt O00329); assay: PI3Kδ Scintillation Proximity Assay; type: biochemical; settings: 20 μM PIP2, 2 μM ATP, 3.4 nM PI3Kδ, 120 min; read-out: PI3K-delta SPA IC50
From the text: [γ-^33P]ATP (10 mCi/mL) and Wheat Germ Agglutinin (WGA) YSi SPA Scintillation Beads was purchased from Perkin-Elmer (Waltham, Mass.). Lipid kinase substrate, D-myo-Phosphatidylinositol 4,5-bisphosphate (PtdIns(4,5)P2)D (+)-sn-1,2-di-O-octanoylglyceryl, 3-O-phospho linked (PIP2), CAS 204858-53-7, was purchased from Echelon Biosciences (Salt Lake City, Utah). PI3Kδ (p110δ/p85α) Recombinant Human Protein was purchased from Eurofins (St Charles, Mo.). ATP, MgCl2, DTT, EDTA, MOPS and CHAPS were purchased from Sigma-Aldrich (St. Louis, Mo.).
(§1) The kinase reaction was conducted in polystyrene 384-well Greiner Bio-one white plate from Thermo Fisher Scientific in a final volume of 25 μL. Inhibitors were first diluted serially in DMSO and added to the plate wells before the addition of other reaction components. The final concentration of DMSO in the assay was 2%. The PI3Kδ assay was carried out at room temperature in 20 mM MOPS, pH 6.7, 10 mM MgCl2, 5 mM DTT and CHAPS 0.03%. Reactions were initiated by the addition of ATP, the final reaction mixture consisted of 20 μM PIP2, 2 μM ATP, 0.5 μCi [γ-^33P] ATP, 3.4 nM PI3Kδ. Reactions were incubated for 120 min and terminated by the addition of 40 μL SPA beads suspended in quench buffer: 163 mM potassium phosphate pH 7.8, 20% glycerol, 25 mM EDTA. The final concentration of SPA beads is 1.0 mg/mL. After the plate sealing, plates were shaken overnight at room temperature and centrifuged at 1500 rpm for 10 min, the radioactivity of the product was determined by scintillation counting on Topcount (Perkin-Elmer). IC50 determination was performed by fitting the curve of percent of the solvent control activity versus the log of the inhibitor concentration using the GraphPad Prism 6.0 software.

[2] = target: PI3Kγ (p110γ) Recombinant Human Protein (Homo sapiens (Human), UniProt P48736); assay: PI3K-γ Scintillation Proximity Assay; type: biochemical; settings: 20 μM PIP2, 2 μM ATP, 13 nM PI3Kγ, 120 min; read-out: PI3K-gamma SPA IC50
Experimental: [γ-^33P]ATP (10 mCi/mL) and Wheat Germ Agglutinin (WGA) YSi SPA Scintillation Beads was purchased from Perkin-Elmer (Waltham, Mass.). […] PI3Kγ (p110γ) Recombinant Human Protein was purchased from Life technology (Grand Island, N.Y.). ATP, MgCl2, DTT, EDTA, MOPS and CHAPS were purchased from Sigma-Aldrich (St. Louis, Mo.).
as §1, with “PI3Kγ” for “PI3Kδ”, “ATP, 3.4 nM PI3Kδ. Reactions were incubated for 120 min and terminated by the addition of 40 μL SPA beads suspended in quench buffer: 163 mM potassium phosphate pH 7.8, 20% glycerol, 25 mM EDTA.” left out

Sequence of PI3Kγ (p110γ) Recombinant Human Protein (P48736 whole entry): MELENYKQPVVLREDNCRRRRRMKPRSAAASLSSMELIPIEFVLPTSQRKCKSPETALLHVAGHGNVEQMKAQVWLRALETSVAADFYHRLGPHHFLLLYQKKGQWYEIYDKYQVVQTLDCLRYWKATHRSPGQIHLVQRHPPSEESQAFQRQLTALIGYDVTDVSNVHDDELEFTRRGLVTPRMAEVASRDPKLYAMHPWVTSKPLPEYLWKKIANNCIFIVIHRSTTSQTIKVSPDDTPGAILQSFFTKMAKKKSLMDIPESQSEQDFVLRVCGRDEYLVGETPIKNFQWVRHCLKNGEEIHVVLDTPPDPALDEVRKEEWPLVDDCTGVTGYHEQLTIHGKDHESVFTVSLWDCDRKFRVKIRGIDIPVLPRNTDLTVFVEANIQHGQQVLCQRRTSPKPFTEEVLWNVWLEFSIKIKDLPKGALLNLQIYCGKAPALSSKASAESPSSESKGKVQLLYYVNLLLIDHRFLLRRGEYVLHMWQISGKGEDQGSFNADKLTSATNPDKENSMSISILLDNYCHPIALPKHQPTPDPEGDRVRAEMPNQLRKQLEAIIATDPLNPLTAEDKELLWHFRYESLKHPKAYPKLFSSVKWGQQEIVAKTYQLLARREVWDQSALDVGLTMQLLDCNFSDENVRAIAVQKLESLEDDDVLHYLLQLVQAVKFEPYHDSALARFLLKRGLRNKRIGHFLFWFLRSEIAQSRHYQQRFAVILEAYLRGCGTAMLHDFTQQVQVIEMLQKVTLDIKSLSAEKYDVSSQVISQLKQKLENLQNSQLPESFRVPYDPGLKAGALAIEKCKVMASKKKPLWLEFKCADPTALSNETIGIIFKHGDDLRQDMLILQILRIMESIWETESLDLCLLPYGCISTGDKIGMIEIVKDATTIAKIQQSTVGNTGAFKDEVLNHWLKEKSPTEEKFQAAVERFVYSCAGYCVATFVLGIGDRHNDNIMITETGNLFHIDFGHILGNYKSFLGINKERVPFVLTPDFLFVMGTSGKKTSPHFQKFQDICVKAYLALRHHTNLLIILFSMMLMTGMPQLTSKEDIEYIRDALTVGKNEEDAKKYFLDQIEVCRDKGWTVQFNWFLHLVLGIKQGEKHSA
Sequence of PI3Kδ (p110δ/p85α) Recombinant Human Protein (O00329 whole entry): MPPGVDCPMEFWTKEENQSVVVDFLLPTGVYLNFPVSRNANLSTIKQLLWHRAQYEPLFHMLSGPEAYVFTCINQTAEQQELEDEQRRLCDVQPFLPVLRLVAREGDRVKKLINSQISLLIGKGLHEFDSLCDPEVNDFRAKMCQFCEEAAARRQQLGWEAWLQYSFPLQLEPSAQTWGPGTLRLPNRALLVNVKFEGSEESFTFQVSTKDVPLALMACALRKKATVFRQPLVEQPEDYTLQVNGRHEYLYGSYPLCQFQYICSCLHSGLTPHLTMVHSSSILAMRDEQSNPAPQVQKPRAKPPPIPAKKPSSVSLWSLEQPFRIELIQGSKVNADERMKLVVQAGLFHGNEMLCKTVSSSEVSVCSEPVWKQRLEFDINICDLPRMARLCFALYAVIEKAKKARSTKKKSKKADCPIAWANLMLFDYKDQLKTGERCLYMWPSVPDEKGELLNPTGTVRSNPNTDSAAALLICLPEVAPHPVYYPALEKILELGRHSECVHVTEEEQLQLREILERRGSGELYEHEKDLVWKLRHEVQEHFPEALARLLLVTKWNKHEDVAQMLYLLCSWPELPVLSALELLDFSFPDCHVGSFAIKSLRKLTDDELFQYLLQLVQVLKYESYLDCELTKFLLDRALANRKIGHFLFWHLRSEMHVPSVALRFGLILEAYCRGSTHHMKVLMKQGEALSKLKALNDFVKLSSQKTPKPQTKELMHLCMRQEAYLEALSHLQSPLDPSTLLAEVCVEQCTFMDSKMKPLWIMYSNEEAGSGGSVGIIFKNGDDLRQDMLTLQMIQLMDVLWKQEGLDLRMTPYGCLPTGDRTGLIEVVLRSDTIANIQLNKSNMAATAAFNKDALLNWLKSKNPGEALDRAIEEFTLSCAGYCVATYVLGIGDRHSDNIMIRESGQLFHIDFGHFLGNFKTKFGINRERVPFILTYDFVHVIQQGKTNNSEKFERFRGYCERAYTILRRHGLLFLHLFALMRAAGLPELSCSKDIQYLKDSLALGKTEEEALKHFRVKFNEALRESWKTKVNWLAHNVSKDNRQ
Sequence of PI3Kδ (p110δ/p85α) Recombinant Human Protein (P27986 whole entry partner): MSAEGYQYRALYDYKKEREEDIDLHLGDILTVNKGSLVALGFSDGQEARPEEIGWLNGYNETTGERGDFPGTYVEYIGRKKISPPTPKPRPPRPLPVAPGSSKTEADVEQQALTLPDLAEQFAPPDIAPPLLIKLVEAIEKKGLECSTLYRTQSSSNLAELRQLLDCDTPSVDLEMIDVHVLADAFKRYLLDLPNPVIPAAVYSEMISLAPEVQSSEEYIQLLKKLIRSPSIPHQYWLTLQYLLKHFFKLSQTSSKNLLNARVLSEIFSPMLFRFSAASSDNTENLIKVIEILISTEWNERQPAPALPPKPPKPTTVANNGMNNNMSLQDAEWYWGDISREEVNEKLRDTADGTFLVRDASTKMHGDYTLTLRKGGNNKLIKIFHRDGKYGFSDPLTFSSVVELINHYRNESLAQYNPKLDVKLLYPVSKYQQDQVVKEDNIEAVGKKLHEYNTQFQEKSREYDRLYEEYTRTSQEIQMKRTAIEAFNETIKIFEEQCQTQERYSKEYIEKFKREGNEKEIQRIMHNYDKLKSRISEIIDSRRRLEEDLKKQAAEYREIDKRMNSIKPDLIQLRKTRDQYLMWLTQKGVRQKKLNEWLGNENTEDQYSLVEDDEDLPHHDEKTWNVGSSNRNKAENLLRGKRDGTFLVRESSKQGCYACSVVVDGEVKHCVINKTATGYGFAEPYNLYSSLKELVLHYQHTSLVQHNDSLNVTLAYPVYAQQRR

In the case of `CN1CCN(S(=O)(=O)Nc2cncc(-c3ccc4nc(-c5nc6ccccc6[nH]5)oc4c3)c2)CC1` [Example 31, N-(5-(2-(1H-Benzo[d]imidazol-2-yl)benzo[d]oxazol-6-yl)pyridin-3-yl)-4-methylpiperazine-1-sulfonamide], the IC50 [1] is reported as under 0.25 µM and the IC50 [2] is reported as under 250 nM.
In the case of `CN1CCN(S(=O)(=O)Nc2cc(-c3ccc4nc(-c5nc6ccccc6[nH]5)oc4c3)cnc2F)CC1` [Example 32, N-(5-(2-(1H-Benzo[d]imidazol-2-yl)benzo[d]oxazol-6-yl)-2-fluoropyridin-3-yl)-4-methylpiperazine-1-sulfonamide], the IC50 [1] is reported as under 0.25 µM and the IC50 [2] is reported as under 250 nM.
Work on `CC(=O)Nc1cncc(-c2ccc3nc(-c4nc5ccccc5[nH]4)oc3c2)c1` [Example 33, N-(5-(2-(1H-Benzo[d]imidazol-2-yl)benzo[d]oxazol-6-yl)pyridin-3-yl)acetamide] yielded an IC50 [1] of at least 5 µM and an IC50 [2] of under 1000 nM.
`CN(C)c1cncc(-c2ccc3nc(-c4nc5ccccc5[nH]4)oc3c2)c1` [Example 34, 5-(2-(1H-Benzo[d]imidazol-2-yl)benzo[d]oxazol-6-yl)-N,N-dimethylpyridin-3-amine] showed an IC50 [1] of under 5 µM and an IC50 [2] of under 250 nM.
Compound `N#Cc1cncc(-c2ccc3nc(-c4nc5ccccc5[nH]4)oc3c2)c1` [Example 35, 5-(2-(1H-Benzo[d]imidazol-2-yl)benzo[d]oxazol-6-yl)nicotinonitrile] has an IC50 [1] of at least 5 µM and an IC50 [2] of under 250 nM.
With `CS(=O)(=O)c1cncc(-c2ccc3nc(-c4nc5ccccc5[nH]4)oc3c2)c1` [Example 36, 2-(1H-Benzo[d]imidazol-2-yl)-6-(5-(methylsulfonyl)pyridin-3-yl)benzo[d]oxazole] the IC50 [1] was under 5 µM and the IC50 [2] was under 250 nM.
`CN(C)S(=O)(=O)c1cncc(-c2ccc3nc(-c4nc5ccccc5[nH]4)oc3c2)c1` [Example 37, 5-[2-(1H-benzimidazol-2-yl)-1,3-benzoxazol-6-yl]-N,N-dimethylpyridine-3-sulfonamide] gave an IC50 [1] of under 1 µM and an IC50 [2] of under 250 nM.
`O=S(=O)(c1cncc(-c2ccc3nc(-c4nc5ccccc5[nH]4)oc3c2)c1)N1CCOCC1` [Example 38, 2-(1H-Benzo[d]imidazol-2-yl)-6-(5-(morpholinosulfonyl)pyridin-3-yl)benzo[d]oxazole] showed an IC50 [1] of at least 5 µM and an IC50 [2] of under 250 nM.
Work on `O=S(=O)(Nc1cncc(-c2ccc3nc(-c4ncc[nH]4)oc3c2)c1)c1ccc(F)cc1` [Example 39, N-(5-(2-(1H-Imidazol-2-yl)benzo[d]oxazol-6-yl)pyridin-3-yl)-4-fluorobenzenesulfonamide] yielded an IC50 [1] of under 0.25 µM and an IC50 [2] of under 250 nM.
`CCS(=O)(=O)Nc1cncc(-c2ccc3nc(-c4ncc[nH]4)oc3c2)c1` [Example 40, N-(5-(2-(1H-Imidazol-2-yl)benzo[d]oxazol-6-yl)pyridin-3-yl)ethanesulf-onamide] showed an IC50 [1] of under 1 µM and an IC50 [2] of under 250 nM.
`CN(C)S(=O)(=O)Nc1cncc(-c2ccc3nc(-c4ncc[nH]4)oc3c2)c1` [Example 41, N′-{5-[2-(1H-Imidazol-2-yl)-1,3-benzoxazol-6-yl]pyridin-3-yl}-N,N-dimethyl-sulfamide] gave an IC50 [1] of under 1 µM and an IC50 [2] of under 250 nM.
For `COc1cncc(-c2ccc3nc(-c4cnc(C5CC5)[nH]4)oc3c2)c1` [Example 42, 2-(2-Cyclopropyl-1H-imidazol-5-yl)-6-(5-methoxypyridin-3-yl)benzo[d]oxazole], the IC50 [1] was under 5 µM and the IC50 [2] was under 1000 nM.
`COc1cncc(-c2ccc3nc(-c4cnc(C5CCOC5)[nH]4)oc3c2)c1` (centres unmarked) [Example 43, 6-(5-Methoxy-pyridin-3-yl)-2-(2-(tetrahydro-furan-3-yl)-1H-imidazol-5-yl)benzo[d] oxazole] showed an IC50 [1] of at least 5 µM and an IC50 [2] of under 5000 nM.
With `COc1cncc(-c2ccc3nc(-c4cnc(-c5ccccc5)[nH]4)oc3c2)c1` [Example 44, 6-(5-Methoxy-pyridin-3-yl)-2-(2-phenyl-1H-imidazol-5-yl)benzo[d] oxazole] the IC50 [1] was at least 5 µM and the IC50 [2] was under 250 nM.
Work on `CCc1ncc(-c2nc3ccc(-c4cncc(OC)c4)cc3o2)[nH]1` [Example 45, 2-(2-Ethyl-1H-imidazol-5-yl)-6-(5-methoxy-pyridin-3-yl)benzo[d] oxazole] yielded an IC50 [1] of at least 5 µM and an IC50 [2] of over 5000 nM.
For `COc1cncc(-c2ccc3nc(-c4cc(C)n[nH]4)oc3c2)c1` [Example 46, 6-(5-Methoxypyridin-3-yl)-2-(3-methyl-1H-pyrazol-5-yl)benzo[d]oxazole], the IC50 [1] was at least 5 µM and the IC50 [2] was over 5000 nM.
For `COc1cncc(-c2ccc3nc(-c4cc(-c5ccccc5)n[nH]4)oc3c2)c1` [Example 47, 6-(5-Methoxypyridin-3-yl)-2-(3-phenyl-1H-pyrazol-5-yl)benzo[d]oxazole], the IC50 [1] was at least 5 µM and the IC50 [2] was under 5000 nM.
`c1ccc(Cn2cc(-c3ccc4nc(-c5nc6ccccc6[nH]5)oc4c3)cn2)cc1` [Example 48, 2-(1H-Benzimidazol-2-yl)-6-(1-benzyl-1H-pyrazol-4-yl)-1,3-benzoxazole] showed an IC50 [1] of under 5 µM and an IC50 [2] of under 250 nM.
`c1ccc2[nH]c(-c3nc4ccc(-c5ccc6[nH]ncc6c5)cc4o3)nc2c1` [Example 49, 2-(1H-Benzimidazol-2-yl)-6-(1H-indazol-5-yl)-1,3-benzoxazole] gave an IC50 [1] of under 5 µM and an IC50 [2] of under 250 nM.
Compound `Cc1n[nH]c2ccc(-c3ccc4nc(-c5nc6ccccc6[nH]5)oc4c3)cc12` [Example 50, 2-(1H-Benzimidazol-2-yl)-6-(3-methyl-1H-indazol-5-yl)-1,3-benzoxazole] has an IC50 [1] of under 0.25 µM and an IC50 [2] of under 250 nM.
For `Fc1ccc(-c2ccc3nc(-c4nc5ccccc5[nH]4)oc3c2)cc1F` [Example 51, 2-(1H-Benzimidazol-2-yl)-6-(3,4-difluorophenyl)-1,3-benzoxazole trifluoroacetate], the IC50 [1] was at least 5 µM and the IC50 [2] was under 250 nM.
`CCS(=O)(=O)n1ncc2ccc(-c3ccc4nc(-c5nc6ccccc6[nH]5)oc4c3)cc21` [Example 52, 6-[1-(Ethylsulfonyl)-1H-indazol-6-yl]-2-(1H-benzimidazol-2-yl)-1,3-benzoxazole] showed an IC50 [1] of under 0.25 µM and an IC50 [2] of under 250 nM.
Compound `CCn1cc2ccc(-c3ccc4nc(-c5nc6ccccc6[nH]5)oc4c3)cc2n1` [Example 53, 2-(1H-benzimidazol-2-yl)-6-(2-ethyl-2H-indazol-6-yl)-1,3-benzoxazole bis(trifluoroacetate)] has an IC50 [1] of at least 5 µM and an IC50 [2] of under 250 nM.
Work on `CCn1ncc2ccc(-c3ccc4nc(-c5nc6ccccc6[nH]5)oc4c3)cc21` [Example 54, 2-(1H-benzimidazol-2-yl)-6-(1-ethyl-1H-indazol-6-yl)-1,3-benzoxazole bis(trifluoroacetate)] yielded an IC50 [1] of at least 5 µM and an IC50 [2] of under 250 nM.
`c1ccc(CN2CCN(c3ccc4nc(-c5nc6ccccc6[nH]5)oc4c3)CC2)cc1` [Example 55, 2-(1H-Benzimidazol-2-yl)-6-(4-benzylpiperazin-1-yl)-1,3-benzoxazole tris(trifluoroacetate)] showed an IC50 [1] of at least 5 µM and an IC50 [2] of under 5000 nM.
`Nc1ncc(-c2ccc3nc(-c4nc5ccccc5[nH]4)oc3c2)cc1C(F)(F)F` [Example 56, 5-[2-(1H-Benzimidazol-2-yl)-1,3-benzoxazol-6-yl]-3-(trifluoromethyl)pyridin-2-amine bis(trifluoroacetate)] showed an IC50 [1] of at least 5 µM and an IC50 [2] of under 250 nM.
With `CCn1ncc2ncc(-c3ccc4nc(-c5nc6ccccc6[nH]5)oc4c3)cc21` [Example 57, 6-[2-(1H-Benzimidazol-2-yl)-1,3-benzoxazol-6-yl]-1-ethyl-1H-pyrazolo[4,3-b]pyridine tris(trifluoroacetate)] the IC50 [1] was under 1 µM and the IC50 [2] was under 250 nM.
`O=S(=O)(c1cncc(-c2ccc3nc(-c4nc5ccccc5[nH]4)oc3c2)c1)N1CCC(O)C1` (centres unmarked) [Example 58, 1-({5-[2-(1H-Benzimidazol-2-yl)-1,3-benzoxazol-6-yl]pyridin-3-yl}sulfonyl)pyrrolidin-3-ol bis(trifluoroacetate)] showed an IC50 [1] of under 1 µM and an IC50 [2] of under 250 nM.
